Test results: patent publication US4017488A, “Process for preparing 7β-acylamino-7α-alkoxycephalosporins” (Sankyo Company Limited, priority 1974, dated 1977)
Converted amounts (≈) assume the structure as drawn.

What was measured:
Type in all cases: cell-based
[1] = tested on: broad range of disease germs; assay: Antimicrobial activities (general statement); conditions: statement in words
[2] = tested on: Staphylococcus aureus 209p; assay: Minimal inhibitory concentration, I A; conditions: read-out: Minimal inhibitory concentrations
Description: (§1) Minimal inhibitory concentrations of various microorganisms mcg/ml
*I A: Staphylococcus aureus 209p

[3] = tested on: Staphylococcus aureus (CP and PC resistant); assay: Minimal inhibitory concentration, I B; conditions: read-out: Minimal inhibitory concentrations
Description: as §1
I B: Staphylococcus aureus (CP and PC resistant)

[4] = tested on: Shigella flexneri Komagome; assay: Minimal inhibitory concentration, III; conditions: read-out: Minimal inhibitory concentrations
Description: as §1
III: Shigella flexneri Komagome

[5] = tested on: Klebsiella neumoniae 846 (CER resistant); assay: Minimal inhibitory concentration, IV B; conditions: read-out: Minimal inhibitory concentrations
Description: as §1
IV B: Klebsiella neumoniae 846 (CER resistant)

## CO[C@@]1(NC(=O)CSc2nnc[nH]2)C(=O)N2C(C(=O)O)=C(COC(N)=O)CS[C@@H]21 [7β-(1,2,4-triazol-4H-3-yl)thioacetamido-7α-methoxy-3-carbamoyloxymethyl-3-cephem-4-carboxylic acid]
[1]
  anti-bacterial / antimicrobial activities: excellent anti-bacterial activities against a broad range of disease germs

## CO[C@@]1(NC(=O)CSc2nncs2)C(=O)N2C(C(=O)O)=C(CSc3nnnn3C)CS[C@@H]21 [7β-(1,3,4-thiadiazol-2-yl)thioacetamido-7α-methoxy-3-(1-methyl-1H-tetrazol-5-yl)thiomethyl-3-cephem-4-carboxylic acid]
[1]
  anti-bacterial / antimicrobial activities: excellent anti-bacterial activities against a broad range of disease germs

## CO[C@@]1(NC(=O)CSc2nncs2)C(=O)N2C(C(=O)O)=C(COC(C)=O)CS[C@@H]21 [7β-(1,3,4-thiadiazol-2-yl)thioacetamido-7α-methoxy-3-acetoxymethyl-3-cephem-4-carboxylic acid]
[1]
  anti-bacterial / antimicrobial activities: excellent anti-bacterial activities against a broad range of disease germs

## CO[C@@]1(NC(=O)CSc2nncs2)C(=O)N2C(C(=O)O)=C(COC(N)=O)CS[C@@H]21 [7β-(1,3,4-thiadiazol-2-yl)thioacetamido-7α-methoxy-3-carbamoyloxymethyl-3-cephem-4-carboxylic acid]
[1]
  anti-bacterial / antimicrobial activities: excellent anti-bacterial activities against a broad range of disease germs

## CO[C@@]1(NC(=O)CSc2ccon2)C(=O)N2C(C(=O)O)=C(COC(C)=O)CS[C@@H]21 [7β-(3-isoxazolyl)thioacetamido-7α-methoxy-3-acetoxymethyl-3-cephem 4-carboxylic acid]
[1]
  anti-bacterial / antimicrobial activities: excellent anti-bacterial activities against a broad range of disease germs

## CO[C@@]1(NC(=O)COc2ccon2)C(=O)N2C(C(=O)O)=C(CSc3nnnn3C)CS[C@@H]21 [7β-(3-isoxazolyloxy)acetamido-7α-methoxy-3-(1-methyl-1H-tetrazol-5-yl)thiomethyl-3-cephem-4-carboxylic acid]
[2]
  MIC: 0.2 mg/L (≈ 0.414 µM)
[3]
  MIC: 0.8 mg/L (≈ 1.65 µM)
[4]
  MIC: 3.1 mg/L (≈ 6.41 µM)
[5]
  MIC: > 400 mg/L
[1]
  anti-bacterial / antimicrobial activities: excellent anti-bacterial activities against a broad range of disease germs

## CO[C@@]1(NC(=O)COc2ccon2)C(=O)N2C(C(=O)O)=C(COC(C)=O)CS[C@@H]21 [7β-(3-isoxazolyloxy)acetamido-7α-methoxy-3-acetoxymethyl-3-cephem-4-carboxylic acid]
[1]
  anti-bacterial / antimicrobial activities: excellent anti-bacterial activities against a broad range of disease germs

## CO[C@@]1(NC(=O)CSc2nnc(C)s2)C(=O)N2C(C(=O)O)=C(CSc3nnnn3C)CS[C@@H]21 [7β-(5-methyl-1,3,4-thiadiazol-2-yl)thioacetamido-7α-methoxy-3-(1-methyl-1H-tetrazol-5-yl)thiomethyl-3-cephem-4-carboxylic acid]
[1]
  anti-bacterial / antimicrobial activities: excellent anti-bacterial activities against a broad range of disease germs

## CO[C@@]1(NC(=O)CSc2nnc(C)s2)C(=O)N2C(C(=O)O)=C(COC(N)=O)CS[C@@H]21 [7β-(5-methyl-1,3,4-thiadiazol-2-yl)thioacetamido-7α-methoxy-3-carbamoyloxymethyl-3-cephem-4-carboxylic acid]
[1]
  anti-bacterial / antimicrobial activities: excellent anti-bacterial activities against a broad range of disease germs

## CO[C@@]1(NC(=O)CSc2ncc[nH]2)C(=O)N2C(C(=O)O)=C(CSc3nnnn3C)CS[C@@H]21 [7β-(imidazol-2-yl)thioacetamido-7α-methoxy-3-(1-methyl-1H-tetrazol-5-yl)thiomethyl-3-cephem-4-carboxylic acid]
[1]
  anti-bacterial / antimicrobial activities: excellent anti-bacterial activities against a broad range of disease germs

## CO[C@@]1(NC(=O)CSc2ncc[nH]2)C(=O)N2C(C(=O)O)=C(COC(C)=O)CS[C@@H]21 [7β-(imidazol-2-yl)thioacetamido-7α-methoxy-3-acetoxymethyl-3-cephem-4-carboxylic acid]
[1]
  anti-bacterial / antimicrobial activities: excellent anti-bacterial activities against a broad range of disease germs

## CO[C@@]1(NC(=O)CSc2ncc[nH]2)C(=O)N2C(C(=O)O)=C(COC(N)=O)CS[C@@H]21 [7β-(imidazol-2-yl)thioacetamido-7α-methoxy-3-carbamoyloxymethyl-3-cephem-4-carboxylic acid]
[1]
  anti-bacterial / antimicrobial activities: excellent anti-bacterial activities against a broad range of disease germs

## CO[C@@]1(NC(=O)CSCN=[N+]=[N-])C(=O)N2C(C(=O)O)=C(COC(C)=O)CS[C@@H]21 [7β-azidomethylthioacetamido-7α-methoxy-3-acetoxymethyl-3-cephem-4-carboxylic acid]
[1]
  anti-bacterial / antimicrobial activities: excellent anti-bacterial activities against a broad range of disease germs

## CO[C@@]1(NC(=O)CSCC#N)C(=O)N2C(C(=O)O)=C(CSc3nnnn3C)CS[C@@H]21 [7β-cyanomethylthioacetamido-7α-methoxy-3-(1-methyl-1H-tetrazol-5-yl)thiomethyl-3-cephem-4-carboxylic acid]
[1]
  anti-bacterial / antimicrobial activities: excellent anti-bacterial activities against a broad range of disease germs

## CO[C@@]1(NC(=O)CSCC#N)C(=O)N2C(C(=O)O)=C(COC(C)=O)CS[C@@H]21 [7β-cyanomethylthioacetamido-7α-methoxy-3-acetoxymethyl-3-cephem-4-carboxylic acid]
[1]
  anti-bacterial / antimicrobial activities: excellent anti-bacterial activities against a broad range of disease germs

## CO[C@@]1(NC(=O)CSCC#N)C(=O)N2C(C(=O)O)=C(COC(N)=O)CS[C@@H]21 [7β-cyanomethylthioacetamido-7α-methoxy-3-carbamoyloxymethyl-3-cephem-4-carboxylic acid]
[1]
  anti-bacterial / antimicrobial activities: excellent anti-bacterial activities against a broad range of disease germs

## C#CCSCC(=O)N[C@]1(OC)C(=O)N2C(C(=O)O)=C(CSc3nnnn3C)CS[C@@H]21 [7β-propargylthioacetamido-7α-methoxy-3-(1-methyl-1H-tetrazol-5-yl)thiomethyl-3-cephem-4-carboxylic acid]
[1]
  anti-bacterial / antimicrobial activities: excellent anti-bacterial activities against a broad range of disease germs

## C#CCSCC(=O)N[C@]1(OC)C(=O)N2C(C(=O)O)=C(COC(C)=O)CS[C@@H]21 [7β-propargylthioacetamido-7α-methoxy-3-acetoxymethyl-3-cephem-4-carboxylic acid]
[1]
  anti-bacterial / antimicrobial activities: excellent anti-bacterial activities against a broad range of disease germs

## C#CCSCC(=O)N[C@]1(OC)C(=O)N2C(C(=O)O)=C(COC(N)=O)CS[C@@H]21 [7β-propargylthioacetamido-7α-methoxy-3-carbamoyloxymethyl-3-cephem-4-carboxylic acid]
[1]
  anti-bacterial / antimicrobial activities: excellent anti-bacterial activities against a broad range of disease germs
